According to US20040077639A1, “Methods for the treatment of respiratory diseases and conditions using a selective iNOS inhibitor” (priority 2002, published 2004):
“Also recorded” adds a separate entry of the source. Where a name gives a salt, the structure may show the parent alone. Read-outs that look alike come from different tables or passages of the source.

Key:
[1] = system: LPS-induced increase in plasma nitrite/nitrate levels; assay: In vivo assay: endotoxin (LPS)-treated rats, plasma nitrite/nitrate; set-up: species or system rat; settings: oral administration, plasma nitrite/nitrate 5 hours post-treatment
Experimental: Plasma nitrite/nitrate levels can be determined 5 hours post-treatment.

[2] = system: nitrite production in human cartilage explants; assay: Human cartilage explant assay (nitrite production after IL-1β); assay type: cell-based; settings: inhibition of nitrite production, IL-1β-stimulated explants
Experimental: Human cartilage Explant Assay
Bone pieces are rinsed twice with Dulbecco's Phosphate Buffered Saline (GibcoBRL) and once with Dulbecco's Modified Eagles Medium (GibcoBRL) and placed into a petri dish with phenol red free Minimum Essential Medium (MEM) (GibcoBRL). Cartilage was cut into small explants of approximately 15-45 mg in weight and one or two explants per well are placed into either 96 or 48 well culture plates with 200-500 μL of culture media per well. The culture media was either a custom modification of Minimum Essential Medium(Eagle) with Earle's salts (GibcoBRL) prepared without L-Arginine, without L-Glutamine and without phenol red or a custom modification of serumless Neuman and Tytell (GibcoBRL) medium prepared without L-arginine, without insulin, without ascorbic acid, without L-glutamine and without phenol red. Both are supplemented before use with 100 μM L-Arginine (Sigma), 2 mM L-glutamine, 1×HL-1 supplement (BioWhittaker), […] ascorbic acid (Sigma) and 150 pg/ml recombinant human IL-1[…] (RD Systems) to induce nitric oxide synthase. Compounds are then added in 10 μL aliquots and the explants incubated at 37° C. with 5% CO2 for 18-24 hours. The day old supernatant is then discarded and replaced with fresh culture media containing recombinant human IL-1β and compound and incubated for another 20-24 hours. […] All samples are done in quadruplicate. Unstimulated controls are cultured in media in the absence of recombinant human IL-1β. IC50 values (Table I) are determined from plotting the percent inhibition of nitrite production at six different concentrations of inhibitor.

airway inflammation = settings: murine model of allergic asthma; by down-regulation of chemokine expression; cited from earlier work
[3] = Clinical study: tolerability, FEV1, blood pressure, heart rate, laboratory parameters; assay type: in vivo, human
Experimental: (§1) A single center study was performed at the National Heart and Lung Institute (NHLI) Clinical Studies Unit in London, UK. The clinical protocol was submitted and accepted by the Ethics Committee of the Royal Brompton Hospital Trust, and the study was carried out according to Good Clinical Practice standards. Each subject provided written informed consent.
(§2) Twenty-four, adult, healthy volunteers and 24 patients with mild asthma participated in this study. All subjects were lifelong non-smokers. Asthma patients (n=24) had mild asthma according to American Thoracic Society Criteria, with medication on an as required basis with inhaled albuterol only. […] All asthmatic patients had baseline exhaled breath NO levels of >15 parts per billion (ppb). Healthy control (n=24) subjects were matched for age and sex, and had no clinically significant disease. Healthy subjects were required to have baseline exhaled NO levels between 4 and 9 ppb.
The study included 2 panels of healthy volunteers and asthmatic patients who received in a double-blind, randomized manner, a single dose of oral compound NN or placebo. The study was carried out in two phases according to the dose of compound NN under investigation. The first panel consisted of patients with mild-to-moderate asthma (n=12) and healthy subjects (n=12) who received single doses of 20 mg of compound NN and placebo, while the second panel of mild-to-moderate asthmatics (n=12) and healthy subjects (n=12) received single doses of 200 mg of compound NN and placebo. No patient or subject participated in both panels of this study. Evaluation of the first panel was completed before moving on to the second panel. The study evaluated the tolerability and pharmacokinetics of orally-administered compound NN and monitored levels of exhaled breath NO.
Forced expiratory volume in 1 sec (FEV1) and heart rate data had no significant deviations from normality using the Shapiro-Wilks test, therefore parametric statistical methods were used, and the significance of the change from baseline was tested using a paired […]. […]

[4] = system: exhaled breath nitric oxide (NO); assay: Clinical study: exhaled breath NO after single oral dose; assay type: in vivo, human
Experimental: as §1, §2
The study included 2 panels of healthy volunteers and asthmatic patients who received in a double-blind, randomized manner, a single dose of oral compound NN or placebo. The study was carried out in two phases according to the dose of compound NN under investigation. […] The study evaluated the tolerability and pharmacokinetics of orally-administered compound NN and monitored levels of exhaled breath NO.
Measurement of exhaled NO: Exhaled NO was measured using a chemoluminescence analyzer (Logan 2000, Rochester, UK) and methods in accordance with International Guidelines. […] Two successive recordings were taken, and the average value was calculated.
Statistical methods for clinical data: Exhaled NO data, including change from baseline and the percentage change, were tested for normality using the Shapiro-Wilks test. […] The area under the curve (AUC) for the change from baseline and the percentage change, and the differences between active and placebo were calculated. […]

i-NOS = i-NOS (Homo sapiens, UniProt P35228); assay: Comparison of i-NOS inhibition with NIL amide and NIL dimethylamide; assay type: biochemical
i-NOS, sequence (P35228 whole entry): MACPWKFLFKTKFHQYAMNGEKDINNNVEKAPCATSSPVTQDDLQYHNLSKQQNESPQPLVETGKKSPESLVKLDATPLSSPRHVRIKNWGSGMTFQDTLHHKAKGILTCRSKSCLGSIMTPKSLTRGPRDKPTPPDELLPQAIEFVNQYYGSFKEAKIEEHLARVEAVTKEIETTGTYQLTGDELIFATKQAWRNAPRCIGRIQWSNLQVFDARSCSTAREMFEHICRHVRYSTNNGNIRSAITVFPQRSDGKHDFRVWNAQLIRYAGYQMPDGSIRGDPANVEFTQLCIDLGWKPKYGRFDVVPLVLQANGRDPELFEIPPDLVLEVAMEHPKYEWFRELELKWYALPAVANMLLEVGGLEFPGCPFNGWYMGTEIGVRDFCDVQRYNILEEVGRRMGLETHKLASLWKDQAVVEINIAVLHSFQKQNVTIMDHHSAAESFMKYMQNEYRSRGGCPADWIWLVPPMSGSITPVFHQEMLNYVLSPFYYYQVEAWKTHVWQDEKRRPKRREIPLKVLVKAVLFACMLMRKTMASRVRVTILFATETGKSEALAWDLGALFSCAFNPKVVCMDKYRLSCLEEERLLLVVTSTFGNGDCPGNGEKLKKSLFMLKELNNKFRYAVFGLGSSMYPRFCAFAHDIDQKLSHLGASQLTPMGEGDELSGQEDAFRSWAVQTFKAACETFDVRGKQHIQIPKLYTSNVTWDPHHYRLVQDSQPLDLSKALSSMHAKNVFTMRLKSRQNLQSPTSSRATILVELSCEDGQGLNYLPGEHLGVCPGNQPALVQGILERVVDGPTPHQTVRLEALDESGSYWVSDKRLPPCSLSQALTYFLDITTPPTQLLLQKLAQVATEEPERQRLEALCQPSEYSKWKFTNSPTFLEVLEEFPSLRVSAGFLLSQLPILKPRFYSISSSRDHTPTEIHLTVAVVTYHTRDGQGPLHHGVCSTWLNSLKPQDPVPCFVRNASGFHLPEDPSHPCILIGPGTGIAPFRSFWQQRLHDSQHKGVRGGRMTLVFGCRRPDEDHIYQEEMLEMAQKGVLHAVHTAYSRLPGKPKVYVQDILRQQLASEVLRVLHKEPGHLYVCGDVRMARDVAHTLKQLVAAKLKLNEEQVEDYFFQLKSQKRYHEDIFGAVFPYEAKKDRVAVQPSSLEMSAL

exhaled NO = settings: high doses, literature; cited from earlier work
[5] = Rattus norvegicus, read-out: ED50

Row | Compound | ED50 [1, 5] [mg/kg] | IC50 ([2]; Homo sapiens) [nM] | other results
1 | CC(=N)NC/C(F)=C\CC[C@](C)(N)C(=O)O [Example HH, (2S,5E)-2-amino-2-methyl-6-fluoro-7-[(1-iminoethyl)amino]-5-heptenoic acid, Dihydrochloride] | 0.4 | 400 | –
2 | CC(=N)NC/C(F)=C\CC[C@H](N)C(=O)Nc1nnn[nH]1 [Example H, (2S,5E)-2-amino-6-fluoro-7-[(1-iminoethyl)amino]-N-(1H-tetrazol-5-yl) 5-heptenamide, Dihydrochloride] | < 0.3 | – | –
3 | CC(=N)NCC(F)=CCC[C@H](N)C(=O)O (mixture of isomers) [Example B, (2S,5E/Z)-2-amino-6-fluoro-7-[(1-iminoethyl)amino]-5-heptenoic acid, Dihydrochloride] | – | 200 | –
4 | CC(=N)NC/C(F)=C\CC[C@H](N)C(=O)O [Example A, (2S,5E)-2-amino-6-fluoro-7-[(1-iminoethyl)amino]-5-heptenoic acid, dihydrochloride, monohydrate] | < 0.1 | 100 | ED50 ([1]; dihydrochloride, monohydrate): <0.1 mg/kg
5 | CC(=N)NC/C=C\CC[C@](C)(N)C(=O)O.Cl.Cl [Example LL, (2S,5Z)-2-amino-2-methyl-7-[(1-iminoethyl)amino]-5-heptenoic acid, Dihydrochloride] | 0.3 | 800 | –
6 | Cl.N=C1CCCC[C@H](CCCC[C@@H](N)C(=O)O)N1.O.O.O [Example Y, (αR,2S)-α-aminohexahydro-7-imino-1H-azepine-2-hexanoic acid, Trihydrate Hydrochloride] | < 3 | – | –
7 | CCSC(=N)N [S-ethylisothiourea] | – | – | effect on airway inflammation (airway inflammation): suppressed airway inflammation
8 | CC1CCN=C(N)S1 (stereo not shown) [2-amino 5,6-dihydro 6-methyl 4H-1,3-thiazine] | – | – | effect on airway inflammation (airway inflammation): suppressed airway inflammation
9 | CC(=N)NCCCC[C@H](N)C(=O)Nc1nnn[nH]1 [Example NN, 2S-amino-6-[(1-iminoethyl)amino]-N-(1H-tetrazol-5-yl) hexanamide, hydrate, dihydrochloride] | – | – | effects on heart rate, blood pressure and FEV1 ([3]; 200 mg oral, FIG. 4): no apparent effects; effect on haematology or blood biochemistry ([3]; single oral dose): no effect; tolerability ([3]; single oral dose, healthy volunteers and asthmatics, FIG. 4): well tolerated; change in exhaled NO ([4]; 20 mg and 200 mg single oral doses, healthy volunteers and asthmatics, 72 hour assessment, FIG. 3, hydrate, dihydrochloride): rapid reduction in exhaled NO; also recorded: of rapid onset and dose-related; inhibition of exhaled NO ([4]; 200 mg single oral dose, asthma): 95%; duration of decrease in exhaled breath NO ([4]; single oral dose, healthy volunteers and asthmatics): 3 days; i-NOS inhibitory potency compared with NIL amide or NIL dimethylamide (i-NOS): more potent
10 | COC[C@](N)(CSCCNC(C)=N)C(=O)O [Example J, 2-[[[2-[(1-Iminoethyl)amino]ethyl]thio]methyl]-O-methyl-D-serine, Dihydrochloride] | – | – | IC50 [2]: 8200 nM
11 | N=C1CCCC[C@H](CCCC[C@H](N)C(=O)O)N1 [Example X, (αS,2S)-α-aminohexahydro-7-imino-1H-azepine-2-hexanoic acid, Trihydrate Hydrochloride] | – | – | IC50 [2]: < 10000 nM
12 | 2S-amino-6-[(1-iminoethyl)amino]-N-(1H-tetrazol-5-yl) hexanamide, hydrate, dihydrochloride [Example NN] | – | – | selectivity compared with NIL amide or NIL dimethylamide (i-NOS): more selective
13 | CC(=N)NC/C(F)=C/CC[C@H](N)C(=O)O [Example D, (2S,5Z)-2-amino-6-fluoro-7-[(1-iminoethyl)amino]-5-heptenoic acid, trihydrochloride, dihydrate] | > 10 | 2500 | –
14 | COC(=O)[C@@H](N)CCCNC(=N)N[N+](=O)[O-] [L-NAME] | – | – | effect on airway inflammation (airway inflammation): suppressed airway inflammation; inhibition of exhaled NO (exhaled NO): approximately 70%
15 | N=C1CCCC[C@H](CCCC[C@H](N)C(=O)O)N1 [Example Z, (αS,2S)-α-aminohexahydro-7-imino-1H-azepine-2-hexanoic acid, Trihydrate Hydrochloride] | – | < 10000 | –
16 | N=C1CCCC[C@@H](CCCC[C@H](N)C(=O)O)N1 [Example W, (αS,2R)-α-aminohexahydro-7-imino-1 H-azepine-2-hexanoic acid, Trihydrate Hydrochloride] | > 10 | > 30000 | –
17 | N=C1CCCC[C@H](CCCC[C@@H](N)C(=O)O)N1 [Example V, (α,2S)-.α-aminohexahydro-7-imino-1H-azepine-2-hexanoic acid, Trihydrate Hydrochloride] | < 3 | < 10000 | –
18 | CC(=NO)NC/C(F)=C\CC[C@H](N)C(=O)O [Example G, (2S,5E)-2-amino-6-fluoro-7-[(1-hydroximinoethyl)amino]-5-heptenoic acid] | < 0.1 | – | melting point: 198 to 200 °C
19 | N=C(N)NN [amino-guanidine] | – | – | inhibition of exhaled NO (exhaled NO): approximately 70%
